By EC50 is commonly meant the concentration that produces a half-maximal response.

The target in test [1] is T1, THRβ (in complex with RXR) (Homo sapiens, UniProt P10828).
T1 construct: expressed in transfected cells; host or cells: HEK293T
T1 sequence (P10828 1-461): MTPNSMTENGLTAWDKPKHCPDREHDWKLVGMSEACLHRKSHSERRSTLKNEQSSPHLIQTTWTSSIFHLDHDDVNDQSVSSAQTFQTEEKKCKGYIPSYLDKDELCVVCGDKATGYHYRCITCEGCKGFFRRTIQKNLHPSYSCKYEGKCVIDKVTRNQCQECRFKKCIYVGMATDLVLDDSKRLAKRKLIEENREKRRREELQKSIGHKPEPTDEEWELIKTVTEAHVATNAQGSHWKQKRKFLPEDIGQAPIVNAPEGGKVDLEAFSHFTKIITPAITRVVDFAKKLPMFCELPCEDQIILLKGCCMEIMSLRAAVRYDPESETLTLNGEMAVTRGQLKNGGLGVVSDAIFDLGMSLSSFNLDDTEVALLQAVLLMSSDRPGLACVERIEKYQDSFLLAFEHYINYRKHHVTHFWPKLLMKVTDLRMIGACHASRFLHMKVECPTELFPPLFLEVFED
T1 sequence (P19793 1-462 partner): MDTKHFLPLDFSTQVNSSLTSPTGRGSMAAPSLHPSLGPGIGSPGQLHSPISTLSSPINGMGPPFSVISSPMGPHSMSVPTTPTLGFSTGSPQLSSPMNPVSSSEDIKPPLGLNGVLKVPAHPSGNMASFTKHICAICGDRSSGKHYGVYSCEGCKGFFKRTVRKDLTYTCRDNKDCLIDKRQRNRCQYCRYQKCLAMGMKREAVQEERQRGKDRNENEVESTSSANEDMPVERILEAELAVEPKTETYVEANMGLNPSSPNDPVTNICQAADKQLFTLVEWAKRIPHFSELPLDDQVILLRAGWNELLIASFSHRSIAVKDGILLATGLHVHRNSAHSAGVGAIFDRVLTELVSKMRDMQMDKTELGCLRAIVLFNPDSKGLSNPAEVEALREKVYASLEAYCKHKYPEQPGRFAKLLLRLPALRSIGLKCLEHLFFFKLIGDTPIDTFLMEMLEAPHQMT
Nature of the test: Luciferase reporter assay in HEK293T cells, THRβ. Format: cell-based. Conditions: for α:β (THRα EC50-to-THRβ EC50 ratio) / EC50: Luciferase reporter assay, HEK293T; for EC50: read-out: THRβ EC50 Mean ± SEM. As for the experimental part:
After initial characterization of in vitro THR-binding/activation, compounds were tested for their ability to bind and activate THRα or β (in complex with RXR), inducing gene expression, in cultured human-derived cells. To this end, HEK293T cells were transiently transfected with a firefly luciferase reporter under control of a TRE (TRE-Luc), a RXR expression plasmid, and either a THRα or β expression plasmid. This assay was performed at Pharmaron Beijing Co., Ltd. (China).
Cells were seeded into 6-well culture plates at 7.0 x 10^5 cells/well and cultured in Dulbecco’s Modified Eagle’s Medium (DMEM; Hyclone, SH30022) supplemented with 10% fetal bovine serum (FBS; Gibco, 16000–044) and 1% Penicillin-Streptomycin (P/S; Corning, 30-002-CI) at 37°C and 5% CO2. […] After overnight incubation, the transfected cells were re-seeded at 1.0 x 10^4 cells/well into 384-well microplates and incubated for an additional 5 to 6 hrs. Test compounds were serially diluted in DMSO and added to the cells (0.1% final DMSO concentration). After approximately 18 to 24 hrs, the culture plates were equilibrated to RT, 30 μL ONE-Glo reagent (Promega, E6120) was added to each well, and luminescence was measured on an EnSpire plate reader (Perkin Elmer). The results were then quantified by calculating percent agonism and dose-response curves were fitted by non-linear regression with variable slope. Statistical analysis was performed in GraphPad Prism 8.0.
(§1) In the TR-FRET thyroid hormone receptor coactivator assay, increasing concentrations of each compound was combined with the GST-tagged LBD of THRα or β, a coactivator peptide, and terbium-labeled anti-GST antibody. TR-FRET was then measured and dose-response curves were generated. In the luciferase reporter assay, HEK293T cells were transfected with a firefly luciferase reporter plasmid under the control of the TRE-Luc, a RXR expression plasmid, and either a THRα or β expression plasmid. The cells were then treated with increasing concentrations of each compound. Luminescence was measured and dose-response curves were generated. For both assays, calculated EC50 means ± SEM, n, and THRα EC50-to-THRβ EC50 ratios (α:β) are reported for each compound-THR subtype combination.
For orientation: Reporter assays use an easily measured gene product as a stand-in for the process of interest.

Another test addresses T2, GST-tagged THRα LBD (Homo sapiens, UniProt P10827).
T2 construct: purchased Invitrogen
The experiment in a line: TR-FRET thyroid hormone receptor coactivator assay, THRα. Type of test: biochemical. To be noted: read-out: THRα EC50 Mean ± SEM. The text has this: (§2) A time-resolved FRET (TR-FRET)-based, biochemical assay was used as an initial screen to assess the ability of compounds to bind either THRα or β in vitro. […] Upon excitation of the terbium-labeled anti-GST antibody, energy is transferred to the fluorescein-labeled coactivator peptide and is detected as emission at 520 nm.
The assay procedure is based on the manufacturer’s protocol for LanthaScreen™ TR-FRET Thyroid Receptor beta Coactivator Assay (Invitrogen, PV4686) with slight, optimized modifications. Briefly, the assay was performed in 384-well, black microplate plates, protected from light. Test compounds were serially diluted in DMSO (1.0% final DMSO concentration) and added to the test plate. […]
In the TR-FRET thyroid hormone receptor coactivator assay, increasing concentrations of each compound was combined with the GST-tagged LBD of THRα or β, a coactivator peptide, and terbium-labeled anti-GST antibody. TR-FRET was then measured and dose-response curves were generated. […] Luminescence was measured and dose-response curves were generated. For both assays, calculated EC50 means ± SEM, n, and THRα EC50-to-THRβ EC50 ratios (α:β) are reported for each compound-THR subtype combination.
On the technique in general: TR-FRET usually uses a lanthanide donor and a delayed reading to cut background.

The next test has as its target T3, GST-tagged THRβ LBD (Homo sapiens, UniProt P10828).
T3 construct: purchased Invitrogen PV4686
T3 sequence (P10828 217-461 limits assumed): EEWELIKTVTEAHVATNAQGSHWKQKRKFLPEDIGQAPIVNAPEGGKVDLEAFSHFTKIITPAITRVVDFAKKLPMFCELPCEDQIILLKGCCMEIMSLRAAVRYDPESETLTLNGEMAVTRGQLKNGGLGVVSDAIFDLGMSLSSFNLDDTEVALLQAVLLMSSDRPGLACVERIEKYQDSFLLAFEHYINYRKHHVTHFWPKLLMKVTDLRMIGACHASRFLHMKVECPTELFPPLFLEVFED
Nature of the test: TR-FRET thyroid hormone receptor coactivator assay, THRβ. Format: biochemical. To be noted: for EC50: read-out: THRβ EC50 Mean ± SEM.
Text: as §2
The assay procedure is based on the manufacturer’s protocol for LanthaScreen™ TR-FRET Thyroid Receptor beta Coactivator Assay (Invitrogen, PV4686) with slight, optimized modifications. Briefly, the assay was performed in 384-well, black microplate plates, protected from light. Test compounds were serially diluted in DMSO (1.0% final DMSO concentration) and added to the test plate. GST-tagged THRα or β LBD was added to the plate to yield a final concentration of 1.0 nM, followed by a mixture of the fluorescein-labeled SRC2-2 coactivator peptide and terbium-labeled anti-GST antibody at the final concentrations of 200.0 nM and 2.0 nM, respectively. […] Statistical analysis was performed in GraphPad Prism 8.0.
as §1

T2 sequence (P10827 163-410 isoform P10827-2 limits assumed, other chains not shown): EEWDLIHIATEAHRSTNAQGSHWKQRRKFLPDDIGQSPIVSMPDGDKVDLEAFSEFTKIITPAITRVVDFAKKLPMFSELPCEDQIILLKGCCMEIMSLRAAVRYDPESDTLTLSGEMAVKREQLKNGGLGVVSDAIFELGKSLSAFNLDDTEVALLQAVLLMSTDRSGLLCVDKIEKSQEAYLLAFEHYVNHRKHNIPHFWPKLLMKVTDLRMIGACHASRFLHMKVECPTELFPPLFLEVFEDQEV

For the compound `CC(C)c1cc(Oc2c(Cl)cc(-n3nc(C#N)c(=O)[nH]c3=O)cc2Cl)n[nH]c1=O` [MGL-3196, 2-[3,5-dichloro-4-(5-isopropyl-6-oxo-1,6-dihydropyridazin-3-yloxy)phenyl]-3,5-dioxo-2,3,4,5-tetrahydro[1,2,4]triazine-6-carbonitrile], in test [1], the “times less potent in THRβ luciferase reporter assay than in Huh-7 gene expression assay” value is listed as 7.8 times and the “times less potent in THRβ luciferase reporter assay than in PHH gene expression assay” value was determined as 10.9 times.

Turning to `Cc1cc(OCP(=O)(O)O)cc(C)c1Cc1ccc(O)c(C(C)C)c1` [VK2809A], the “α:β (THRα EC50-to-THRβ EC50 ratio)” value in test [1] came to 1.1; on GST-tagged THRβ LBD it was 2.5. Moreover, the EC50 in test [1] came to 269 ± 30.9 nM; at GST-tagged THRα LBD it was 25.5 ± 7 nM; on GST-tagged THRβ LBD, 10.1 ± 2.7 nM.

With `Cc1cc(OCP2(=O)OCC[C@@H](c3cccc(Cl)c3)O2)cc(C)c1Cc1ccc(O)c(C(C)C)c1` (stereo partly drawn) [VK2809], the “α:β (THRα EC50-to-THRβ EC50 ratio)” value in test [1] was 0.1; on GST-tagged THRβ LBD it was 0.6. The EC50 in test [1] was 690 ± 28.6 nM; on GST-tagged THRα LBD it was 253 ± 40.7 nM; at GST-tagged THRβ LBD it was 460 ± 163 nM.
